Laboratory results: patent US20250289785A1, “INDOLE DERIVATIVE, METHOD FOR PREPARING SAME, AND USE THEREOF” (MITOIMMUNE THERAPEUTICS INC., priority 2021, published 2025)

How the values were obtained:
[1] = system: H9C2 cells; assay: Cell protection effect against t-BHP in heart cells (LDH release); type: cell-based; conditions: H9C2, t-BHP 40 μM, 2 hours
Description: In order to identify the protective effect with regard to heart cells, H9C2 cells were divided into 96-well plates by 1.5×10^4, and cultured for 24 hours. The respective wells were treated with compounds of the examples 3× serial diluted to final concentrations of […], then cultured for 15 to 20 minutes. After treating with t-BHP with a final concentration of 40 μM, culturing was performed for 2 hours. In order to identify the protective effect of each compound, a Cytotoxicity LDH assay kit [Dojindo; CK12] was used to measure the degree of extracellular secretion of LDH. To describe briefly, at the time point 2-hour treatment of the cells with t-BHIP was completed, 100 μL each of the supernatant in which the cells were placed was collected and moved to a new 96-well plate. 100 μL/well of the assay buffer included in the kit (same amount as the sample) was added, followed by wrapping with foil and reacting for 30 minutes at room temperature. Observing the change in color of the sample, 50 μL/well of stop solution was added, then an iD3 spectrometer was used to measure absorbance at 490 nm and calculate the EC50 values. The EC50 of the compounds of the examples is preferably no more than 1.0 μM, and more preferably no more than 0.3 μM.

[2] = Plasma and brain concentration after oral administration to ICR mice (HPLC-MS/MS); type: in vivo; conditions: ICR mouse, 10 mg/kg, 2 hours after administration
Description: […] parameters can be represented as maximum concentration in plasma (Cmax), time taken until maximum concentration in plasma (Tmax), area under the plasma concentration-time curve (AUClast and AUCinf), and half-life (t1/2), and the like.
The compound of example 2 was orally administered to ICR mice at a dose of 10 mg/kg, and drug concentration in mouse plasma was measured using HPLC-MS/MS spectroscopy at 0.5, 1, 2, 4, 8 and 24 hours. The mouse brains were removed at 2 or 24 hours, and drug concentration in the brain was measured using HPLC-MS/MS spectroscopy. The area under the plasma concentration v. time curve (AUCinf) was measured to be […], and at 2 hours after administration drug concentration in plasma was 546 ng/mL and brain drug concentration was measured at 1043 ng/mL. […] Further, at 24 hours after administration, for Embodiment 2, drug concentration in plasma was measured to be 4.7 ng/mL and drug concentration in the brain was measured at 5.7 ng/mL. With the brain-plasma drug concentration ratio at 1.23, drug exposure in the brain was still high.
The Comparative Example compound was orally administered to ICR mice at a dose of 10 mg/kg, and drug concentration in mouse plasma was measured using HPLC-MS/MS spectroscopy at 0.5, 1, 2, 4, 8 and 24 hours. The mouse brains were removed at 2 or 24 hours, and drug concentration in the brain was measured using HPLC-MS/MS spectroscopy.

EC50 [1] [µM]	brain drug concentration [2] [ng/mL]	drug concentration in plasma [2] [ng/mL]	Structure (SMILES)
≤ 0.3			CCOCc1cc(NC2CCCC2)c2[nH]c(-c3ccccc3)c(/C=C/C(=O)c3ccccc3)c2c1 [Example 34, (E)-3-(7-(cyclopentylamino)-5-(ethoxymethyl)-2-phenyl-1H-indol-3-yl)-1-phenylpropan-2-ene-1-one]
≤ 0.3			COCCCNc1cc(COC)cc2cc(-c3ccccc3)[nH]c12 [Example 13, 5-(methoxymethyl)-N-(3-methoxypropyl)-2-phenyl-1H-indol-7-amine]
≤ 0.3			CCOCc1cc(NC2CCOCC2)c2[nH]c(-c3ccccc3)cc2c1 [Example 20, 5-(ethoxymethyl)-2-phenyl-N-(tetrahydro-2H-pyran-4-yl)-1H-indol-7-amine]
≤ 0.3			COCCc1cc(NC2CCCC2)c2[nH]c(-c3ccccc3)cc2c1 [Example 42, N-cyclopentyl-5-(2-methoxyethyl)-2-phenyl-1H-indol-7-amine]
0.3 to 1			CCOCc1cc(NC2CCOCC2)c2[nH]c(-c3ccccc3)c(C(O)C(F)(F)F)c2c1 (stereo not shown) [Example 37, 1-(5-(ethoxymethyl)-2-phenyl-7-((tetrahydro-2H-pyran-4-yl)amino)-1H-indol-3-yl)-2,2,2-trifluoro-1-ol]
	95.1	1122.4	OCc1cc(NC2CCCC2)c2[nH]c(-c3ccccc3)cc2c1 [Comparative Example, reference compound]
